Results on eleven molecules are retold here after patent US20230139171A1 (SITA Information Networking Computing UK Limited, priority 2019, published 2023).

Common to all, as to assay type: cell-based
One assay concerns the target T1, human TLR8 (Homo sapiens, UniProt Q9NR97).
T1 construct: host or cells: HEK-Blue cells
T1 sequence (Q9NR97 27-1041): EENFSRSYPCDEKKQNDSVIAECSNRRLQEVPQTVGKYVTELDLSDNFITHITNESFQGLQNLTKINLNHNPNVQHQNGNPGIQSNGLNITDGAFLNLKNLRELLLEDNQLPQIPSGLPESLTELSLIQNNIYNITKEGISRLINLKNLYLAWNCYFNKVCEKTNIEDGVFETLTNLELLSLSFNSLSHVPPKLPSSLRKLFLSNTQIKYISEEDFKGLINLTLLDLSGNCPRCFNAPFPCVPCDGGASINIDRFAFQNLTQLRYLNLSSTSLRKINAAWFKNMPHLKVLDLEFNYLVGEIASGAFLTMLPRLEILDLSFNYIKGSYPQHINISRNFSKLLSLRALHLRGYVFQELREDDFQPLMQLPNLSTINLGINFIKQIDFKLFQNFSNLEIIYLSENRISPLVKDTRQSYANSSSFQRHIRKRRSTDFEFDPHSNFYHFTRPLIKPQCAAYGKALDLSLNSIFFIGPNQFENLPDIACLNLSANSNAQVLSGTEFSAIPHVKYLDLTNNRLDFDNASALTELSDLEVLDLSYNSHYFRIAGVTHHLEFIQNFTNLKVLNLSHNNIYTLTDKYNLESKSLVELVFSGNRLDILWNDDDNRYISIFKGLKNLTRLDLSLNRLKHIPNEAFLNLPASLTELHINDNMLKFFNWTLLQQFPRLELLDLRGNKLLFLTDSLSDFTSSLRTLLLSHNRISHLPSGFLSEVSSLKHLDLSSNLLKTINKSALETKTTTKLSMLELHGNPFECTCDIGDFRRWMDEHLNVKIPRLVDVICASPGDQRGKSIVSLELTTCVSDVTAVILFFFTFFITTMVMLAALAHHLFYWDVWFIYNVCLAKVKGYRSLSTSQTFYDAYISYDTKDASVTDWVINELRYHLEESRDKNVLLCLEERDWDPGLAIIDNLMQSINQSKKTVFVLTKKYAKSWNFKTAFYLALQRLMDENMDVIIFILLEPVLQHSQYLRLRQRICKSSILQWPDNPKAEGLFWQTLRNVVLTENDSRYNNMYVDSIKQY
In words: TLR8 inhibition reporter assay (HEK-Blue cells, SEAP reporter, R848 stimulation). The settings on record: HEK-Blue cells overexpressing human TLR8, SEAP reporter, R848 15.9 μM; read-out: TLR8 IC50. The method in brief: (§1)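 HEK-Blue cells overexpressing human TLR7, TLR8 or TLR9 carry a SEAP reporter driven by NF-κB/AP-1 sites. Compounds (0.05 nM–50 μM) were preincubated 30 min at room temperature, then cells were stimulated with gardiquimod 7.5 μM (TLR7), R848 15.9 μM (TLR8) or ODN2006 5 nM (TLR9) for 22 h at 37 °C.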
For orientation: A reporter such as luciferase makes a cellular process visible.

The next assay addresses T2, human TLR9 (Homo sapiens, UniProt Q9NR96).
T2 construct: host or cells: HEK-Blue cells
T2 sequence (Q9NR96 26-1032): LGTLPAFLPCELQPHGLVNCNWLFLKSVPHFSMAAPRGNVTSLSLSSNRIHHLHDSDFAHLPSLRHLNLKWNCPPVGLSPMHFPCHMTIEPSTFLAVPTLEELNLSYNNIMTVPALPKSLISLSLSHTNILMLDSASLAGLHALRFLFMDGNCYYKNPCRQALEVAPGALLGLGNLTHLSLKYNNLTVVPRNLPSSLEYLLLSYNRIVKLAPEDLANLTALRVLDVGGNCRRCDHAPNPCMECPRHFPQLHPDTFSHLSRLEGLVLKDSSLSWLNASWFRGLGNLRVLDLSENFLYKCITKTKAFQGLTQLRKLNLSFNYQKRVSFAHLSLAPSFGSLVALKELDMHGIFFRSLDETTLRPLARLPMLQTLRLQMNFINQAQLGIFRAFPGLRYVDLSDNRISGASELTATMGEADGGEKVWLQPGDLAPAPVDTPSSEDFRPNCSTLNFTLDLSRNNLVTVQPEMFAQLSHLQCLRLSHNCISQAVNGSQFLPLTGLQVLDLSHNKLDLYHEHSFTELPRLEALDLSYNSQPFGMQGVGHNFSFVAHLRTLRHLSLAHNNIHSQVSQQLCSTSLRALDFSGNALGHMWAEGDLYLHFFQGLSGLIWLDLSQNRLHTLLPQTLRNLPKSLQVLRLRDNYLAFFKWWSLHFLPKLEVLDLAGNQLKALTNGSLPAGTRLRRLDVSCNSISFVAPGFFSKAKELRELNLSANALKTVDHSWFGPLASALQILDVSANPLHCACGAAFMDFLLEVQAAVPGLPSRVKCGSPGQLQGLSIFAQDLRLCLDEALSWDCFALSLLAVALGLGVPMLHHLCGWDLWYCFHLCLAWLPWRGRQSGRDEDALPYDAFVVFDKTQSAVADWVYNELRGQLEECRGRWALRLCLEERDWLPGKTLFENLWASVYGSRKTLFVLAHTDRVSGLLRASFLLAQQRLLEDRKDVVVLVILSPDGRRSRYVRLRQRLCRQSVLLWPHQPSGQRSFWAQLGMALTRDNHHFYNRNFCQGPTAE
In words: TLR9 inhibition reporter assay (HEK-Blue cells, SEAP reporter, ODN2006 stimulation). As to conditions: HEK-Blue cells overexpressing human TLR9, SEAP reporter, ODN2006 5 nM. The method in brief:
as §1

In the next assay the target is T3, human TLR7 (Homo sapiens, UniProt Q9NYK1).
T3 construct: host or cells: HEK-Blue cells
T3 sequence (Q9NYK1 27-1049): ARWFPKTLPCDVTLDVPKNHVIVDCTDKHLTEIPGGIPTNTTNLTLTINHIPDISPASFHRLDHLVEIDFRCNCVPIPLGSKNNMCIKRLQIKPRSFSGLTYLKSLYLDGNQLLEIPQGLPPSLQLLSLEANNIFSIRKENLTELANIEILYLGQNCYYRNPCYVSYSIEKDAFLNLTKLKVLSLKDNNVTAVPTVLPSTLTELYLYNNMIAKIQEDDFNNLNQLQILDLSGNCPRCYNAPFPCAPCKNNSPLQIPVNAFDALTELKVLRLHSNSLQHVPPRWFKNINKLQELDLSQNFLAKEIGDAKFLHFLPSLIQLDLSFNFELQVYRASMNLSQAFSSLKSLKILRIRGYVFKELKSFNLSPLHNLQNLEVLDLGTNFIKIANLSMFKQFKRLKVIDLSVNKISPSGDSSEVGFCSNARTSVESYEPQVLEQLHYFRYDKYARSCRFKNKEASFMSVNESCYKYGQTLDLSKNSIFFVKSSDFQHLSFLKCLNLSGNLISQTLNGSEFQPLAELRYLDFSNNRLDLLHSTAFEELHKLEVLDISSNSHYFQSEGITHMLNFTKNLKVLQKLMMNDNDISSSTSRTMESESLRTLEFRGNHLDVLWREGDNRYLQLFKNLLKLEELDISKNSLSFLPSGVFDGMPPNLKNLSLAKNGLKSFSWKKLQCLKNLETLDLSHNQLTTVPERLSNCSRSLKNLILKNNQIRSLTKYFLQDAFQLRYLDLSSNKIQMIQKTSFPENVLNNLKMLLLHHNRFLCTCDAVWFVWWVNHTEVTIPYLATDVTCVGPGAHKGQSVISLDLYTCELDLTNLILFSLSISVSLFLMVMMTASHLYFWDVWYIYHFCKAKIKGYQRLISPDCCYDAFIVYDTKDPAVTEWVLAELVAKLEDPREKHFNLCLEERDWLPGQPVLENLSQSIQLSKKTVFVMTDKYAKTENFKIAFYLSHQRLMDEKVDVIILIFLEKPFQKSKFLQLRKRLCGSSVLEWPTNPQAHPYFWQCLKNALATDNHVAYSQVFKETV
Put plainly: TLR7 inhibition reporter assay (HEK-Blue cells, SEAP reporter, gardiquimod stimulation). As to conditions: HEK-Blue cells overexpressing human TLR7, SEAP reporter, gardiquimod 7.5 μM; read-out: TLR7 IC50. The gist of the method:
as §1

For `COc1cc(-c2[nH]c3sc(C4CCC(N5CC6(C5)CS(=O)(=O)C6)CC4)nc3c2C(C)C)cn2ncnc12` (stereo not drawn) [Example 97, 6-(4-(6-isopropyl-5-(8-methoxy-[1,2,4]triazolo[1,5-a]pyridin-6-yl)-4H-pyrrolo[3,2-d]thiazol-2-yl)cyclohexyl)-2-thia-6-azaspiro[3.3]heptane 2,2-dioxide], the IC50 was 41.9 nM on human TLR8, 5490 nM on human TLR9 and 2.42 nM on human TLR7.

In the case of `COc1cc(-c2[nH]c3sc(C4CCC(NC5(C#N)CC5)CC4)nc3c2C(C)C)cn2ncnc12` (stereo not drawn) [Example 106, 1-((4-(6-isopropyl-5-(8-methoxy-[1,2,4]triazolo[1,5-a]pyridin-6-yl)-4H-pyrrolo[3,2-d]thiazol-2-yl)cyclohexyl)amino)cyclopropane-1-carbonitrile], the IC50 on human TLR8 amounted to 90.9 nM; against human TLR9 it was 14300 nM; at human TLR7, 2.25 nM.

With `COc1cc(-c2[nH]c3sc(C4CCC(NC5(C#N)CC5)CC4)nc3c2C(C)C)cn2ncnc12` (stereo not drawn) [Example 107, 1-((4-(6-isopropyl-5-(8-methoxy-[1,2,4]triazolo[1,5-a]pyridin-6-yl)-4H-pyrrolo[3,2-d]thiazol-2-yl)cyclohexyl)amino)cyclopropane-1-carbonitrile], the IC50 amounted to 190 nM at human TLR8, 15400 nM on human TLR9 and 3.6 nM at human TLR7.

Regarding `COc1cc(-c2[nH]c3sc(C4CCC(N(C)C5COC5)CC4)nc3c2C(C)C)cn2ncnc12` (stereo not drawn) [Example 124, N-(4-(6-isopropyl-5-(8-methoxy-[1,2,4]triazolo[1,5-a]pyridin-6-yl)-4H-pyrrolo[3,2-d]thiazol-2-yl)cyclohexyl)-N-methyloxetan-3-amine], the values for the half-inhibitory concentration (IC50) on human TLR8, against human TLR9 and on human TLR7 were 31.5 nM, 28600 nM and 7.72 nM, respectively.

In the case of `COc1cc(-c2[nH]c3sc(C4CCC(NC(=O)CN(C)C)CC4)nc3c2C(C)C)cn2ncnc12` (stereo not drawn) [Example 126, 2-(dimethylamino)-N-(4-(6-isopropyl-5-(8-methoxy-[1,2,4]triazolo[1,5-a]pyridin-6-yl)-4H-pyrrolo[3,2-d]thiazol-2-yl)cyclohexyl)acetamide], the IC50 came out at 6.83 nM at human TLR8, 13200 nM against human TLR9 and 0.98 nM on human TLR7.

As to `COc1cc(-c2[nH]c3sc(C4CCC(NS(C)(=O)=O)CC4)nc3c2C(C)C)cn2ncnc12` (stereo not drawn) [Example 127, N-(4-(6-isopropyl-5-(8-methoxy-[1,2,4]triazolo[1,5-a]pyridin-6-yl)-4H-pyrrolo[3,2-d]thiazol-2-yl)cyclohexyl)methanesulfonamide], the results for the half-inhibitory concentration (IC50) at human TLR8, on human TLR9 and on human TLR7 were 178 nM, greater than 50000 nM and 1.99 nM, respectively.

In the case of `CCN(C)CC(=O)N[C@H]1CC[C@H](c2nc3c(C(C)C)c(-c4cc(OC)c5ncnn5c4)[nH]c3s2)CC1` [Example 128, Trans 2-(ethyl(methyl)amino)-N-(4-(6-isopropyl-5-(8-methoxy-[1,2,4]triazolo[1,5-a]pyridin-6-yl)-4H-pyrrolo[3,2-d]thiazol-2-yl)cyclohexyl)acetamide], the IC50 at human TLR8 is 8.29 nM; against human TLR9, 13400 nM; at human TLR7 it was 1.21 nM.

Regarding `COc1cc(-c2[nH]c3sc(C4CCC(NC(=O)CNCC(C)C)CC4)nc3c2C(C)C)cn2ncnc12` (stereo not drawn) [Example 129, 2-(isobutylamino)-N-(4-(6-isopropyl-5-(8-methoxy-[1,2,4]triazolo[1,5-a]pyridin-6-yl)-4H-pyrrolo[3,2-d]thiazol-2-yl)cyclohexyl)acetamide], the IC50 at human TLR8 worked out at 7.36 nM; against human TLR9, 14400 nM; on human TLR7 it was 1.34 nM.

With `Cc1c(-c2[nH]c3sc(C4CCC(NCC(N)=O)CC4)nc3c2C(C)C)cn2ncnc2c1C` (stereo not drawn) [Example 210, 2-((4-(5-(7,8-dimethyl-[1,2,4]triazolo[1,5-a]pyridin-6-yl)-6-isopropyl-4H-pyrrolo[3,2-d]thiazol-2-yl)cyclohexyl)amino)acetamide], the IC50 on human TLR8 came out at 1.24 nM; at human TLR9 it was 23800 nM; at human TLR7, 1.8 nM.

For the molecule `Cc1c(-c2[nH]c3sc(C4CCC(NCC(N)=O)CC4)nc3c2C(C)C)cn2ncnc2c1C` (stereo not drawn) [Example 211, 2-((4-(5-(7,8-dimethyl-[1,2,4]triazolo[1,5-a]pyridin-6-yl)-6-isopropyl-4H-pyrrolo[3,2-d]thiazol-2-yl)cyclohexyl)amino)acetamide], the IC50 on human TLR8 stood at 0.58 nM; against human TLR9 it was 14300 nM; at human TLR7 it was 0.79 nM.

For the molecule `Cc1c(-c2[nH]c3sc(N4CCNCC4)nc3c2C(C)C)cn2ncnc2c1C` [Example 278, 5-(7,8-dimethyl-[1,2,4]triazolo[1,5-a]pyridin-6-yl)-6-isopropyl-2-(piperazin-1-yl)-4H-pyrrolo[3,2-d]thiazole], the IC50 at human TLR8 worked out at 0.33 nM; on human TLR9 it was 10800 nM; at human TLR7, 1.43 nM.

The IC50 is the midpoint of a concentration-inhibition curve.
